What follows are compounds tested against T1, SARM1 (50-724) (Homo sapiens, UniProt Q6SZW1) (assay: biochemical). Settings: not given.
T1 sequence (Q6SZW1 50-724): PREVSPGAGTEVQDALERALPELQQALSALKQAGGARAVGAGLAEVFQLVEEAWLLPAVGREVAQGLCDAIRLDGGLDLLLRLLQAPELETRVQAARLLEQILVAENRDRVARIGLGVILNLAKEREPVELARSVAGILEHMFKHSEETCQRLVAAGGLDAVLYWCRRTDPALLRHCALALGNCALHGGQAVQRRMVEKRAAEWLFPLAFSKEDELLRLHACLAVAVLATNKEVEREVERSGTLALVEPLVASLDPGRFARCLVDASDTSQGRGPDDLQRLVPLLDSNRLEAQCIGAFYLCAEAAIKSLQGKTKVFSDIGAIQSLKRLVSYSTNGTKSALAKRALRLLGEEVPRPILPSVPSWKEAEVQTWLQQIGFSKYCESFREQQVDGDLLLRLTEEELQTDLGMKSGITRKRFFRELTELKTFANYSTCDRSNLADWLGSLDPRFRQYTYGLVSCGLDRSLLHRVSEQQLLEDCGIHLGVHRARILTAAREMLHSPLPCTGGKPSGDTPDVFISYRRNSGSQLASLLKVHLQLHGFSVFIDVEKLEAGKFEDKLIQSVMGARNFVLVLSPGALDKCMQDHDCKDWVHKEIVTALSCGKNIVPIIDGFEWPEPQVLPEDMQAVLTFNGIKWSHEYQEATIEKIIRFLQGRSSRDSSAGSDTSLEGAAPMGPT

IC50 [µM]	SMILES
> 1	Cc1cc(F)cc(C(C#N)Nc2ccc3c(c2)C(=O)NCC3)c1 (stereo not shown) [Example 173, 2-(3-fluoro-5-methylphenyl)-2-((1-oxo-1,2,3,4-tetrahydroisoquinolin-7-yl)amino)acetonitrile]
0.1 to 0.5	Cc1cc(F)cc(C(Nc2ccc3c(c2)C(=O)NCC3)C(F)(F)F)c1 (stereo not shown) [Example 174, 7-((2,2,2-trifluoro-1-(3-fluoro-5-methylphenyl)ethyl)amino)-3,4-dihydroisoquinolin-1(2H)-one]
> 1	Cc1cc(F)cc(C2(Nc3ccc4c(c3)C(=O)N(C)CC4)COC2)c1 [Example 175, 7-((3-(3-fluoro-5-methylphenyl)oxetan-3-yl)amino)-2-methyl-3,4-dihydroisoquinolin-1(2H)-one]
> 1	Cc1cc(F)cc(C(CO)Oc2ccc3c(c2)C(=O)NCC3)c1 (stereo not shown) [Example 176, 7-(1-(3-fluoro-5-methylphenyl)-2-hydroxyethoxy)-3,4-dihydroisoquinolin-1(2H)-one]
> 1	Cc1cc(F)cc(C(Nc2ccc3c(c2)C(=O)NCC3)c2ccncc2)c1 (stereo not shown) [Example 177, 7-(((3-fluoro-5-methylphenyl)(pyridin-4-yl)methyl)amino)-3,4-dihydroisoquinolin-1(2H)-one]
0.1 to 0.5	Clc1cccc(C(Nc2ccc3cccnc3c2)C2CCC2)c1Cl (stereo not shown) [Example 179, N-(cyclobutyl(2,3-dichlorophenyl)methyl)quinolin-7-amine]
0.1 to 0.5	Clc1cccc(C(Nc2ccc3cccnc3c2)C2CC2)c1Cl (stereo not shown) [Example 180, N-(cyclopropyl(2,3-dichlorophenyl)methyl)quinolin-7-amine]
0.1 to 0.5	CC(Nc1ccc2c(c1)NC(=O)OC2)c1cccc(Cl)c1Cl (stereo not shown) [Example 181, 7-((1-(2,3-dichlorophenyl)ethyl)amino)-1,4-dihydro-2H-benzo[d][1,3]oxazin-2-one]
< 0.1	CC(Nc1ccc2cn[nH]c(=O)c2c1)c1c(Cl)ccc(F)c1Cl (stereo not shown) [Example 199]
0.1 to 0.5	O=c1[nH]ccc2ccc(OC(CO)c3cccc(Cl)c3Cl)cc12 (stereo not shown) [Example 228, 7-(1-(2,3-dichlorophenyl)-2-hydroxyethoxy)isoquinolin-1(2H)-one]
< 0.1	CC1(C)C(=O)N(CC(=O)N2CCCCC2)c2cc(NS(=O)(=O)c3cccc(Cl)c3Cl)ccc21 [Example 286, 2,3-dichloro-N-(3,3-dimethyl-2-oxo-1-(2-oxo-2-(piperidin-1-yl)ethyl)indolin-6-yl)benzenesulfonamide]
< 0.1	CC1(C)C(=O)N(CC(=O)NCCO)c2cc(NS(=O)(=O)c3cccc(Cl)c3Cl)ccc21 [Example 287, 2-(6-((2,3-dichlorophenyl)sulfonamido)-3,3-dimethyl-2-oxoindolin-1-yl)-N-(2-hydroxyethyl)acetamide]
< 0.1	CC1(C)C(=O)N(CC(=O)N2CCOCC2)c2cc(NS(=O)(=O)c3cccc(Cl)c3Cl)ccc21 [Example 291, 2,3-dichloro-N-(3,3-dimethyl-1-(2-morpholino-2-oxoethyl)-2-oxoindolin-6-yl)benzenesulfonamide]
< 0.1	Cc1c2ccc(NC(C)(C)c3nc(Cl)c(Cl)s3)cc2nn1CC(N)=O [Example 360, 2-(6-((2-(4,5-dichlorothiazol-2-yl)propan-2-yl)amino)-3-methyl-2H-indazol-2-yl)acetamide]

These compounds were tested against T1, SARM1 (50-724) (assay: SARM1 (50-724) enzymatic assay). Settings: SARM1 inhibitory activity; purified SARM1 (50-724) 2 nM, 200 μM NMN activator, 100 μM NAD+ substrate, LC-MS/MS.
Experimental: An enzymatic assay was performed in a 384-well plate using Dulbecco's phosphate-buffered saline (PBS) as the reaction buffer. […] The reaction was initiated by adding a mixture of 200 μM nicotinamide mononucleotide (NMN) as activator and 100 μM NAD^+ as substrate. After 1 h of incubation at room temperature, the reaction was terminated with 10 times volume of 70% acetonitrile, then centrifuged at 3800 rpm for 10 min.

IC50 [µM]	SMILES
< 0.1	CC(Nc1ccc2cc[nH]c(=O)c2c1)c1nccc(Cl)c1Cl (racemic) [Example 194, 7-((1-(3,4-dichloropyridin-2-yl)ethyl)amino)isoquinolin-1(2H)-one]
< 0.1	CC(Nc1ccc2c(c1)C(=O)NCC2)c1cccc(Cl)c1Cl (single isomer, unassigned) [Example 112]

Source: patent publication US20250320184A1 (SIRONAX LTD., priority 2022, published 2025)
